“Also recorded” adds a separate entry of the source.
What was measured:
[1] = test system: fecal bile acids; test: Fecal bile acid excretion after oral administration; format: in vivo, Sprague-Dawley rats; conditions: for Total fecal bile acid excretion: pooled feces day 4; for Fecal lithocholate/deoxycholate ratio (in words) / Fecal lithocholic acid excretion (in words): vs control
Procedure: Male Sprague-Dawley rats (Harlan Sprague-Dawley, Inc., Indianapolis, Ind.), weighing 210-290 g, were maintained on a 12-hour light-dark cycle and fed standard laboratory chow ad libitum for 3 days. The animals were then transferred to metabolic cages in which they were housed individually and fed the same diet. UDCA, UDCA 3-sulfate, UDCA 7-sulfate, and UDCA 3,7-disulfate were administered by gavage at a dose of 250 mg/day for 4 consecutive days. Each group comprised 3-6 rats. Body weights of the animals were measured each day. On day 5, the animals were killed by exsanguination under ether anesthesia. Plasma was collected and frozen at -20° C. The liver was removed, rinsed in normal saline, and flash-frozen in liquid nitrogen. Urine and feces were collected every 24 hours and frozen at -20° C. All animals received humane care in compliance with the "Guide for the Care and Use of Laboratory Animals" prepared by the National Academy of Sciences (National Institutes of Health publication no. 86-23, revised in 1985).
Intestinal contents were weighed and dissected into small pieces. In each group, feces (100 mg) from all animals were pooled on day 4 of the study and then ground into a fine paste. All samples were sonicated and sequentially refluxed in 80% methanol for 2 hours and chloroform/methanol (1:1) for 1 hour. Samples were taken to dryness, and the dried extracts were resuspended in 80% methanol (20 mL). Fractions of the methanolic extract (1/40 of intestinal contents and 1/20 of feces samples) were removed and the internal standard nordeoxycholic acid (10 μg) was added. This extract was diluted with 0.01 mol/L acetic acid (20 mL) and passed first through a column of Lipidex 1000 (bed size, 4×1 cm; Packard Instrument Co., Groningen, The Netherlands) and then through a Bond-Elut C18, cartridge (Analytichem, Harbor City, Calif.). Bile acids were recovered by elution of the Lipidex 1000 column and the Bond-Elut cartridge with methanol (20 mL and 5 mL, respectively), and the combined extracts were taken to dryness. Unconjugated bile acids were isolated and separated from neutral sterol and conjugated bile acids by lipophilic anion exchange chromatography on diethylaminohydroxypropyl Sephadex LH-20 (Lipidex-DEAP; Package Instrument Co.). Recovery of unconjugated bile acids was achieved by elution with 0.1 mol/L acetic acid in 72% ethanol (7 mL) followed by evaporation of the solvents. Total conjugated bile acids were recovered with 9 mL of 0.3 mol/L acetic acid in 72% ethanol, pH 9.6. Salts were removed by passage through a Bond-Elut C18 cartridge after addition of nordeoxycholic acid (10 μg), and conjugated bile acids were recovered by elution with 5 mL of methanol. Solvolysis was performed in a mixture of methanol (1 mL), distilled tetrahydrofuran (9 mL), and 1 mol/L trifluoracetic acid in dioxane (0.1 mL) and heated to 45° C for 2 hours. After solvolysis, unconjugated bile acids were isolated by chromatography on Lipidex-DEAP. Methyl ester derivatives were prepared by dissolving the sample in methanol (0.3 mL) and reacting with 2.7 mL of freshly distilled ethereal diazomethane. After evaporation of the reagents, the methyl ester derivatives were converted to trimethylsilyl ethers by the addition of […] of Tri-Sil reagent (Pierce Chemicals, Rockford, Ill.). A column of Lipidex 5000 (Packard Instrument Co.) was used to remove derivatizing reagents and to purify the sample.
(§1) GC-MS analysis was performed using a Finnigan 4635 mass spectrometer (Finnigan Inc., San Jose, Calif.) that housed an identical gas chromatography column operated under the same conditions. Electron ionization (70 eV) mass spectra were recorded over the mass range of 50-800 daltons by repetitive scanning of the eluting components. […]

[2] = Plasma UDCA concentration after oral administration; format: in vivo, Sprague-Dawley rats; conditions: read-out: Unconjugated plasma UDCA concentration
Procedure: Male Sprague-Dawley rats (Harlan Sprague-Dawley, Inc., Indianapolis, Ind.), weighing 210-290 g, were maintained on a 12-hour light-dark cycle and fed standard laboratory chow ad libitum for 3 days. The animals were then transferred to metabolic cages in which they were housed individually and fed the same diet. UDCA, UDCA 3-sulfate, UDCA 7-sulfate, and UDCA 3,7-disulfate were administered by gavage at a dose of 250 mg/day for 4 consecutive days. Each group comprised 3-6 rats. Body weights of the animals were measured each day. On day 5, the animals were killed by exsanguination under ether anesthesia. Plasma was collected and frozen at -20° C. […]
In each group, urine from all animals was pooled on the individual days of collection. […] After the addition of nordeoxycholic acid (1 μg), bile acids were quantitatively extracted from portions of urine (3 mL) and plasma (1 mL) using Bond-Elut C18 cartridges. […]
as §1
Data are expressed as mean±SEM or as mean values of all animals when extracts were pooled before analysis. […]

[3] = test system: serum liver enzymes; conditions: oral administration; cited from earlier work
[4] = test system: chemically induced colon cancer; conditions: in vivo; cited from earlier work

Row | SMILES | Fecal deoxycholic acid (in words) [1] | Form of UDCA excreted in feces [1] | Increase of fecal lithocholic acid/deoxycholic acid ratio vs normal rat feces [1] | Total fecal bile acid excretion [1] [mg/g feces] | Fecal lithocholate/deoxycholate ratio (in words) [1] | Fecal lithocholic acid excretion (in words) [1] | concentration [2] [µM] | Serum liver enzymes (in words) [3] | Effect in colon cancer models (in words) [4] | Fecal concentration of total UDCA (in words) [1]
1 | C[C@H](CCC(=O)O)[C@H]1CC[C@H]2[C@@H]3[C@@H](O)C[C@@H]4C[C@H](O)CC[C@]4(C)[C@H]3CC[C@]12C [UDCA, 3 alpha, 7 beta-dihydroxy-5 beta-cholan-24oic acid, reference compound] | increase in deoxycholic acid in the feces | almost exclusively found in the unconjugated form | more than 20 fold | 14.85 | markedly increased | increased markedly from control values; also recorded: large increase in the fecal lithocholic acid concentration | 4.8 ± 2.2 | significant improvement in serum liver enzymes | beneficial effects | –
2 | C[C@H](CCC(=O)O)[C@H]1CC[C@H]2[C@@H]3[C@@H](O)C[C@@H]4C[C@H](OS(=O)(=O)O)CC[C@]4(C)[C@H]3CC[C@]12C [UDCA-3S, ursodeoxycholic acid 3-sulfate] | – | – | 11 fold | 10.70 | markedly increased | large increase in the fecal lithocholic acid concentration | – | – | – | –
3 | C[C@H](CCC(=O)O)[C@H]1CC[C@H]2[C@@H]3[C@@H](OS(=O)(=O)O)C[C@@H]4C[C@H](O)CC[C@]4(C)[C@H]3CC[C@]12C [UDCA-7S, ursodeoxycholic acid 7-sulfate] | – | excreted in feces virtually unchanged | – | 12.65 | no change in the lithocholate/deoxycholate ratio | – | – | – | – | markedly greater than that found in the feces of animals administered UDCA or UDCA 3-sulfate
4 | C[C@H](CCC(=O)O)[C@H]1CC[C@H]2[C@@H]3[C@@H](OS(=O)(=O)O)C[C@@H]4C[C@H](OS(=O)(=O)O)CC[C@]4(C)[C@H]3CC[C@]12C [UDCA-DS, ursodeoxycholic acid 3,7-disulfate] | – | excreted in feces virtually unchanged | – | 10.88 | no change in the lithocholate/deoxycholate ratio | – | – | – | – | markedly greater than that found in the feces of animals administered UDCA or UDCA 3-sulfate
